Measured values: patent publication US7138361B2, “Herbicidal heterocycles” (E. I. du Pont de Nemours and Company, priority 2000, dated 2006)

How the values were obtained:
Assay type in all cases: in vivo
Sunflower [1] = test: Test C preemergence; conditions: Rate 250 g/ha, scale 0 to 100, 0 no effect, 100 complete control
[2] = tested on: pigweed (Amaranthus retroflexus); test: Test B postemergence; conditions: Rate 125 g/ha, scale 0 to 100, 0 no effect, 100 complete control
Method in brief: (§1)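 Greenhouse test: chemicals are formulated in a surfactant-containing non-phytotoxic solvent and applied either preemergence to planted seeds or postemergence to plants 2 to 18 cm tall. Response is rated visually versus controls after 13 to 15 days, 0 meaning no effect and 100 complete control.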

wild oat (Avena fatua) = test: Test B postemergence; conditions: Rate 125 g/ha, scale 0 to 100, 0 no effect, 100 complete control
Method in brief: as §1

[3] = tested on: blackgrass (Alopecurus myosuroides); test: Test B postemergence
Method in brief: as §1

[4] = tested on: crabgrass (Digitaria sanguinalis); test: Test B postemergence; conditions: Rate 125 g/ha, scale 0 to 100, 0 no effect, 100 complete control
Method in brief: as §1

[5] = tested on: giant foxtail (Setaria faberii); test: Test B postemergence; conditions: Rate 125 g/ha, scale 0 to 100, 0 no effect, 100 complete control
Method in brief: as §1

[6] = tested on: cocklebur (Xanthium strumarium); test: Test B postemergence
Method in brief: as §1

[7] = tested on: wheat (Triticum aestivum); test: Test B postemergence; conditions: Rate 125 g/ha, scale 0 to 100, 0 no effect, 100 complete control
Method in brief: as §1

[8] = tested on: lambsquarters (Chenopodium album); test: Test B preemergence
Method in brief: as §1

corn (Zea mays) = test: Test B preemergence
Method in brief: as §1

[9] = tested on: pigweed (Amaranthus retroflexus); test: Test B preemergence
Method in brief: as §1

[10] = tested on: crabgrass (Digitaria sanguinalis); test: Test B preemergence
Method in brief: as §1

[11] = tested on: giant foxtail (Setaria faberii); test: Test B preemergence
Method in brief: as §1

[12] = tested on: barnyardgrass (Echinochloa crus-galli); test: Test B preemergence
Method in brief: as §1

[13] = tested on: morning glory (Ipomoea hederacea); test: Test B preemergence
Method in brief: as §1

[14] = tested on: Surinam grass (Brachiaria decumbens); test: Test B preemergence
Method in brief: as §1

rice (Oryza saliva) [15] = test: Test B preemergence
Method in brief: as §1

[16] = tested on: velvetleaf (Abutilon theophrasti); test: Test B preemergence
Method in brief: as §1

[17] = tested on: cocklebur (Xanthium strumarium); test: Test B preemergence
Method in brief: as §1

Nightshade = test: Test C preemergence; conditions: Rate 500 g/ha, visual evaluation after 12 to 14 days
Sunflower [18] = test: Test C preemergence; conditions: Rate 62 g/ha, scale 0 to 100
[19] = tested on: barnyardgrass (Echinochloa crus-galli); test: Test C flooded paddy test; conditions: for Barnyardgrass plant response rating: Flooded Paddy, scale 0 to 100, 0 no effect, 100 complete control; for Plant response rating, Barnyardgrass: flooded paddy test, scale 0 to 100 (0 no effect, 100 complete control)
Method in brief: (§2)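 Plants were grown to the 2-leaf stage under flooded paddy conditions and treated. They were then kept in a greenhouse for 12 to 14 days and visually rated against untreated controls on a 0–100 scale, where 0 is no effect and 100 is complete control.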

rice (Oryza saliva) [20] = test: Test C flooded paddy test; conditions: for Rice plant response rating: Flooded Paddy, scale 0 to 100, 0 no effect, 100 complete control; for Plant response rating, Rice: flooded paddy test, scale 0 to 100 (0 no effect, 100 complete control)
Method in brief: as §2

[21] = tested on: duck salad (Heteranthera limosa); test: Test C flooded paddy test; conditions: for Ducksalad plant response rating: Flooded Paddy, scale 0 to 100, 0 no effect, 100 complete control; for Plant response rating, Ducksalad: flooded paddy test, scale 0 to 100 (0 no effect, 100 complete control)
Method in brief: as §2

[22] = tested on: smallflower flatsedge (Cyperus difformis); test: Test C flooded paddy test; conditions: for Flatsedge plant response rating: Flooded Paddy, scale 0 to 100, 0 no effect, 100 complete control; for Plant response rating, Flatsedge: flooded paddy test, scale 0 to 100 (0 no effect, 100 complete control)
Method in brief: as §2

Sunflower [23] = test: Test C preemergence; conditions: Rate 500 g/ha, visual evaluation after 12 to 14 days
[24] = Rate 125 g/ha, scale 0 to 100, 0 no effect, 100 complete control
[25] = Rate 500 g/ha, scale 0 to 100, 0 is no effect, 100 is complete control, 13 to 15 days
[26] = Preemergence, Rate 500 g/ha, scale 0 to 100, 0 no effect, 100 complete control
[27] = preemergence, Rate 125 g/ha, scale of 0 to 100 where 0 is no effect and 100 is complete control, 13 to 15 days

## COc1cc(N2CCC(n3ccc(C(C)(C)C)n3)C2=O)ccc1Cl (stereo not shown) [Compound 117]
Sunflower [1]
  Plant response rating, Sunflower: 60
[2]
  Plant response rating, Pigweed: 80
Wild oat (Avena fatua)
  Plant response rating, Wild Oat: 40
[3]; [24]
  Plant response rating, Blackgrass: 0
[3]; [25]
  Plant response rating, Blackgrass: 0
[4]
  Plant response rating, Crabgrass: 30
[5]
  Plant response rating, Foxtail, Giant: 0
[6]; [24]
  Plant response rating, Cocklebur: 90
[6]; [25]
  Plant response rating, Cocklebur: 100
[7]
  Plant response rating, Wheat: 30
[8]; [26]
  Plant response rating, Lambsquarters: 100
[8]; [27]
  Plant response rating, Lambsquarters: 100
Corn (Zea mays); [26]
  Plant response rating, Corn: 30
Corn (Zea mays); [27]
  Plant response rating, Corn: 20
[9]; [26]
  Plant response rating, Pigweed: 100
[9]; [27]
  Plant response rating, Pigweed: 100
[10]; [26]
  Plant response rating, Crabgrass: 100
[10]; [27]
  Plant response rating, Crabgrass: 100
[11]; [26]
  Plant response rating, Foxtail, Giant: 100
[11]; [27]
  Plant response rating, Foxtail, Giant: 100
[12]; [26]
  Plant response rating, Barnyardgrass: 100
[12]; [27]
  Plant response rating, Barnyardgrass: 100
[13]; [26]
  Plant response rating, Morningglory: 100
[13]; [27]
  Plant response rating, Morningglory: 80
[14]; [26]
  Plant response rating, Surinam grass: 100
[14]; [27]
  Plant response rating, Surinam grass: 100
Rice (Oryza saliva) [15]; [26]
  Plant response rating, Rice: 70
Rice (Oryza saliva) [15]; [27]
  Plant response rating, Rice: 0
[16]; [26]
  Plant response rating, Velvetleaf: 100
[16]; [27]
  Plant response rating, Velvetleaf: 40
[17]; [26]
  Plant response rating, Cocklebur: 100
[17]; [27]
  Plant response rating, Cocklebur: 70
Nightshade
  Plant response rating (0 to 100), Nightshade: 100
Sunflower [18]
  Plant response rating, Sunflower: 35
[19]; Rate 250 g/ha
  Barnyardgrass plant response rating: 90
[19]; Rate 500 g/ha
  Barnyardgrass plant response rating: 90
[19]; Rate 62 g/ha
  Plant response rating, Barnyardgrass: 40
[19]; Rate 125 g/ha
  Plant response rating, Barnyardgrass: 80
Rice (Oryza saliva) [20]; Rate 500 g/ha
  Rice plant response rating: 30
Rice (Oryza saliva) [20]; Rate 62 g/ha
  Plant response rating, Rice: 20
Rice (Oryza saliva) [20]; Rate 125 g/ha
  Plant response rating, Rice: 30
[21]; Rate 250 g/ha
  Ducksalad plant response rating: 100
[21]; Rate 500 g/ha
  Ducksalad plant response rating: 100
[21]; Rate 62 g/ha
  Plant response rating, Ducksalad: 0
[21]; Rate 125 g/ha
  Plant response rating, Ducksalad: 100
[22]; Rate 250 g/ha
  Flatsedge plant response rating: 100
[22]; Rate 500 g/ha
  Flatsedge plant response rating: 100
[22]; Rate 62 g/ha
  Plant response rating, Flatsedge: 100
[22]; Rate 125 g/ha
  Plant response rating, Flatsedge: 100
Sunflower [23]
  Plant response rating (0 to 100), Sunflower: 65

## CCC(CC)c1ccn(C2CCN(c3ccc(Cl)c(OC)c3)C2=O)n1 (stereo not shown) [Compound 118]
Sunflower [1]
  Plant response rating, Sunflower: 60
[2]
  Plant response rating, Pigweed: 70
Wild oat (Avena fatua)
  Plant response rating, Wild Oat: 30
[3]; [24]
  Plant response rating, Blackgrass: 0
[3]; [25]
  Plant response rating, Blackgrass: 0
[4]
  Plant response rating, Crabgrass: 40
[5]
  Plant response rating, Foxtail, Giant: 0
[6]; [24]
  Plant response rating, Cocklebur: 60
[6]; [25]
  Plant response rating, Cocklebur: 100
[7]
  Plant response rating, Wheat: 20
[8]; [26]
  Plant response rating, Lambsquarters: 100
[8]; [27]
  Plant response rating, Lambsquarters: 100
Corn (Zea mays); [26]
  Plant response rating, Corn: 30
Corn (Zea mays); [27]
  Plant response rating, Corn: 30
[9]; [26]
  Plant response rating, Pigweed: 100
[9]; [27]
  Plant response rating, Pigweed: 100
[10]; [26]
  Plant response rating, Crabgrass: 100
[10]; [27]
  Plant response rating, Crabgrass: 100
[11]; [26]
  Plant response rating, Foxtail, Giant: 100
[11]; [27]
  Plant response rating, Foxtail, Giant: 40
[12]; [26]
  Plant response rating, Barnyardgrass: 100
[12]; [27]
  Plant response rating, Barnyardgrass: 100
[13]; [26]
  Plant response rating, Morningglory: 100
[13]; [27]
  Plant response rating, Morningglory: 40
[14]; [26]
  Plant response rating, Surinam grass: 90
[14]; [27]
  Plant response rating, Surinam grass: 0
Rice (Oryza saliva) [15]; [26]
  Plant response rating, Rice: 0
Rice (Oryza saliva) [15]; [27]
  Plant response rating, Rice: 0
[16]; [26]
  Plant response rating, Velvetleaf: 90
[16]; [27]
  Plant response rating, Velvetleaf: 20
[17]; [26]
  Plant response rating, Cocklebur: 0
[17]; [27]
  Plant response rating, Cocklebur: 0
Nightshade
  Plant response rating (0 to 100), Nightshade: 100
Sunflower [18]
  Plant response rating, Sunflower: 0
[19]; Rate 250 g/ha
  Barnyardgrass plant response rating: 100
[19]; Rate 500 g/ha
  Barnyardgrass plant response rating: 100
[19]; Rate 62 g/ha
  Plant response rating, Barnyardgrass: 50
[19]; Rate 125 g/ha
  Plant response rating, Barnyardgrass: 60
Rice (Oryza saliva) [20]; Rate 250 g/ha
  Rice plant response rating: 20
Rice (Oryza saliva) [20]; Rate 500 g/ha
  Rice plant response rating: 30
Rice (Oryza saliva) [20]; Rate 62 g/ha
  Plant response rating, Rice: 0
Rice (Oryza saliva) [20]; Rate 125 g/ha
  Plant response rating, Rice: 0
[21]; Rate 250 g/ha
  Ducksalad plant response rating: 100
[21]; Rate 500 g/ha
  Ducksalad plant response rating: 100
[21]; Rate 125 g/ha
  Plant response rating, Ducksalad: 60
[22]; Rate 250 g/ha
  Flatsedge plant response rating: 100
[22]; Rate 500 g/ha
  Flatsedge plant response rating: 100
[22]; Rate 62 g/ha
  Plant response rating, Flatsedge: 0
[22]; Rate 125 g/ha
  Plant response rating, Flatsedge: 100
Sunflower [23]
  Plant response rating (0 to 100), Sunflower: 70

## CCC(C)c1ccn(C2CCN(c3ccc(Cl)c(OC)c3)C2=O)n1 (stereo not shown) [Compound 119]
Sunflower [1]
  Plant response rating, Sunflower: 40
[2]
  Plant response rating, Pigweed: 60
Wild oat (Avena fatua)
  Plant response rating, Wild Oat: 0
[3]; [24]
  Plant response rating, Blackgrass: 0
[3]; [25]
  Plant response rating, Blackgrass: 0
[4]
  Plant response rating, Crabgrass: 40
[5]
  Plant response rating, Foxtail, Giant: 0
[6]; [24]
  Plant response rating, Cocklebur: 90
[6]; [25]
  Plant response rating, Cocklebur: 100
[7]
  Plant response rating, Wheat: 20
[8]; [26]
  Plant response rating, Lambsquarters: 100
[8]; [27]
  Plant response rating, Lambsquarters: 100
Corn (Zea mays); [26]
  Plant response rating, Corn: 40
Corn (Zea mays); [27]
  Plant response rating, Corn: 0
[9]; [26]
  Plant response rating, Pigweed: 100
[9]; [27]
  Plant response rating, Pigweed: 100
[10]; [26]
  Plant response rating, Crabgrass: 100
[10]; [27]
  Plant response rating, Crabgrass: 100
[11]; [26]
  Plant response rating, Foxtail, Giant: 100
[11]; [27]
  Plant response rating, Foxtail, Giant: 100
[12]; [26]
  Plant response rating, Barnyardgrass: 100
[12]; [27]
  Plant response rating, Barnyardgrass: 100
[13]; [26]
  Plant response rating, Morningglory: 70
[13]; [27]
  Plant response rating, Morningglory: 50
[14]; [26]
  Plant response rating, Surinam grass: 100
[14]; [27]
  Plant response rating, Surinam grass: 100
Rice (Oryza saliva) [15]; [26]
  Plant response rating, Rice: 20
Rice (Oryza saliva) [15]; [27]
  Plant response rating, Rice: 10
[16]; [26]
  Plant response rating, Velvetleaf: 70
[16]; [27]
  Plant response rating, Velvetleaf: 30
[17]; [26]
  Plant response rating, Cocklebur: 30
[17]; [27]
  Plant response rating, Cocklebur: 30
Nightshade
  Plant response rating (0 to 100), Nightshade: 100
Sunflower [18]
  Plant response rating, Sunflower: 40
[19]; Rate 250 g/ha
  Barnyardgrass plant response rating: 70
[19]; Rate 500 g/ha
  Barnyardgrass plant response rating: 80
[19]; Rate 62 g/ha
  Plant response rating, Barnyardgrass: 30
[19]; Rate 125 g/ha
  Plant response rating, Barnyardgrass: 70
Rice (Oryza saliva) [20]; Rate 250 g/ha
  Rice plant response rating: 50
Rice (Oryza saliva) [20]; Rate 500 g/ha
  Rice plant response rating: 50
Rice (Oryza saliva) [20]; Rate 62 g/ha
  Plant response rating, Rice: 20
Rice (Oryza saliva) [20]; Rate 125 g/ha
  Plant response rating, Rice: 40
[21]; Rate 250 g/ha
  Ducksalad plant response rating: 90
[21]; Rate 500 g/ha
  Ducksalad plant response rating: 100
[21]; Rate 62 g/ha
  Plant response rating, Ducksalad: 0
[21]; Rate 125 g/ha
  Plant response rating, Ducksalad: 20
[22]; Rate 250 g/ha
  Flatsedge plant response rating: 100
[22]; Rate 500 g/ha
  Flatsedge plant response rating: 100
[22]; Rate 62 g/ha
  Plant response rating, Flatsedge: 0
[22]; Rate 125 g/ha
  Plant response rating, Flatsedge: 100
Sunflower [23]
  Plant response rating (0 to 100), Sunflower: 100
